This is an account of results in article PMC11151065, “Boosted Enzyme Activity via Encapsulation within Metal–Organic Frameworks with Pores Matching Enzyme Size and Shape” (Advanced Science, 2024).

The test deals with T1, cytochrome c (Cyt c) (Bos taurus, UniProt P62894).
T1 construct: gene CYCS; native holoprotein from cow heart (Sigma-Aldrich), free in solution
Nature of the test: absorbance of ABTS radical cation at […] nm. In kind it is biochemical. As to conditions: free enzyme; peroxidase activity with H2O2 co-substrate; room temperature.

T1 sequence (P62894 2-105): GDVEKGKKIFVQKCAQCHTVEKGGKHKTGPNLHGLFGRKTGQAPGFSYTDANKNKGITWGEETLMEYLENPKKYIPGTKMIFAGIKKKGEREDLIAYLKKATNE

Take `CCn1c(=NN=c2sc3cc(S(=O)(=O)O)ccc3n2CC)sc2cc(S(=O)(=O)O)ccc21` [ABTS, 2,2′‐azino‐bis (3‐ethylbenzothiazoline‐6‐sulfonic acid)]: the “absorbance of ABTS radical cation at 415 nm” value was “peroxidase catalytic properties of Cyt c were utilized to oxidize ABTS to ABTS▪^+”.
